Key:
[1] = system: Cumulus enclosed oocyte (CEO); assay: Oocyte test, cumulus enclosed oocytes (CEO); assay type: cell-based, mice; settings: HX-medium, 24 hours culture
Procedure: (§1) Animals: Immature female mice (B6D2-F1, strain C57B1/2J) were kept under controlled lighting (14 hr light, 10 hr dark) and temperature, with food and water ad libitum. When the animals reached a weight of 13-16 grams (which correspond to the age of 20 to 22 days post partum) they were given a single injection (i.p.) of human menopausal gonadotropin (Humegon, Organon, The Netherlands) containing approximately 20 IU FSH and 20 IU LH (Ziebe, S. et al. Hum. Reprod. 8(1993) 385-88). 48 hours later the animals were killed by cervical dislocation.
(§2) Collection and culture of oocytes: The ovaries were removed, placed in HX-medium (se below) and freed of extraneous tissue. The collection- and culture medium consisted of Eagles minimum essential medium (Flow, USA), containing 4 mM hypoxanthine, 3 mg/ml of bovine serum albumin, 0.23 mM sodium pyruvate, 2 mM glutamine, 100 U/ml of penicillin, and […] of streptomycin (all Sigma, USA). This medium is termed HX-medium. The same medium but without HX was used as control medium.
(§3) The antral follicles of the ovaries were punctured under a dissecting microscope using a 27-gauge needle. Cumulus enclosed oocyte (CEO) of uniform size were selected and rinsed three times in fresh HX-medium.
(§4) Oocytes freed from cumulus cells, i.e. denuded oocytes, DO, were obtained by gentle flushing CEO through a fine-bore mouth-controlled pipet. CEO and DO were cultured in 4-well multidishes (Nunclon, Denmark) containing 0.5 ml of HX-medium except the controls which were cultured in control medium. Each well contained 35 to 50 oocytes.
(§5) The cultures were performed at 37° C. and 100% humidity with 5% CO2 in air. The culture time was 24 hours.
(§6) Examination of oocytes: By the end of the culture period the number of oocytes with germinal vesicle (GV) or germinal vesicle breakdown (GVBD) and those with polar body (PB) was counted in an inverted microscope with differential interference contrast equipment. The percentage of oocytes with GVBD per total number of oocytes and the percentage of oocytes with PB per GVBD was calculated. One unit of MIS activity is defined as: [formula]
(§7) and the number of MIS activity units is calculated as: [formula]

denuded oocytes, DO = assay: Oocyte test, denuded oocytes (DO); assay type: cell-based, mice; settings: HX-medium, 24 hours culture
Procedure: as §1, §2, §3, §4, §5, §6, §7

[2] = system: oocytes of isolated perfused ovaries; assay: GVB in isolated perfused ovaries from immature rats; design: species or system Immature Sprague-Dawley rats; settings: for % GVB (oocytes undergoing germinal vesicle breakdown per total oocytes per ovary), mean±sd: perfusion up to 12 h, 7 ovaries
Procedure: Animals and Experimental Procedure: Immature Sprague-Dawley rats (body weight: 50-55 g) were injected s.c. with 20 IU pregnant mare serum gonadotropin (PMSG). 48 hours later, the rats were anesthetized with a combination of Ketavet/Rompun (105 and 8.3 mg/kg BW, respectively). Heparin sulfate (300 IU) was injected into the tail vein.
Ovaries with connecting vasculature were surgically isolated and perfusions were performed in a recirculating system (Koos RD et al. (1984) Biol Reprod 30:1135-1141) containing approximately 35 ml of perfusion medium (Medium 199 with Earle's salts supplemented with 50 μg/ml gentamycin sulfate, 0.2 IU/ml insulin, and 4% BSA).
The ovaries were initially perfused for approximately 1 hour to allow metabolic stabilization of the tissue. Only the ovarian specimens which maintained a flow rate between 0.8 and 1.5 ml/min at pressure of 80 mmHg during the stabilization period were used in the experiments.
After 1 hour of preperfusion, the effect of 4,4-dimethyl-5^α-cholesta-8,14,24-triene-3^β-ol (FF-MAS), IBMX (iso-butyl-methyl-xanthine), LH (luteinizing hormone), and cholesterol were tested by dividing the ovarian specimens into control and experimental groups. Additions to the perfusion medium were made as follows:
Prior to addition to the perfusion medium, FF-MAS and cholesterol were diluted in ethanol, and LH and IBMX were diluted in perfusion medium. For the investigation of meiosis, perfusions were continued up to 12 h after addition of the compounds.
At termination of each perfusion ovaries were dissected free from adherent tissue and oocytes isolated under a stereo microscope by manual rupture of the follicles using a pair of 27 gauge needles. Oocytes per ovary were counted and examined using Nomarski differential interference contrast optics.
Oocytes with a germinal vesicle breakdown (GVB) were regarded as undergoing meiotic maturation (Tsafiri et al. (1980) J. Reprod. Fertil. 60:399-402). The % GVB, defined as percentage of oocytes undergoing GVB per total number of oocytes in each ovary was calculated. Each experimental group consisted of 7 perfused ovaries. Data are presented as mean±sd. Statistical differences were calculated by one-way ANOVA followed by Students's t-test. P-values<0.05 indicated a statistically significant higher % GVB in treated groups compared to the control.

**Q.** Which melting point does the source give for `CC(=O)OC1CC[C@]2(C)C3=C(CCC2C1(C)C)C1=CC[C@H]([C@H](C)CCCC(C)C)[C@@]1(C)CC3` (some centres unmarked) here?
**A.** 120 to 125 °C

**Q.** What does the source list for `CC(C)=CCC[C@@H](C)[C@H]1CC[C@H]2C3=C(CC[C@]12C)[C@@]1(C)CC[C@H](O)C(C)(C)[C@@H]1CC3` [4,4-Dimethyl-zymosterol, 4,4-dimethyl-^5α-cholesta-8,24-diene-^3β-ol]?
**A.** CEO, units of MIS activity ([1]; 0.002 μg/ml): 1.0 units of MIS activity; CEO, units of MIS activity ([1]; 0.02 μg/ml): 1.3 units of MIS activity; CEO, units of MIS activity ([1]; 0.2 μg/ml): 1.3 units of MIS activity; CEO, units of MIS activity ([1]; 0.3 μg/ml): 2.7 units of MIS activity; CEO, units of MIS activity ([1]; 1.2 μg/ml): 2.9 units of MIS activity; DO, units of MIS activity (denuded oocytes, DO; 0.002 μg/ml): 0.9 units of MIS activity; DO, units of MIS activity (denuded oocytes, DO; 0.02 μg/ml): 1.5 units of MIS activity; DO, units of MIS activity (denuded oocytes, DO; 0.2 μg/ml): 0.6 units of MIS activity; DO, units of MIS activity (denuded oocytes, DO; 0.3 μg/ml): 1.8 units of MIS activity; DO, units of MIS activity (denuded oocytes, DO; 1.2 μg/ml): 2.7 units of MIS activity

**Q.** Which results are given for `CC(C)CCC[C@@H](C)[C@H]1CC[C@H]2C3=C(CC[C@]12C)[C@@]1(C)CC[C@H](O)C(C)(C)C1CC3` (stereo partly drawn) [4,4-Dimethylcholest-8-ene-^3β-ol]?
**A.** CEO, units of MIS activity ([1]; 0.03 μg/ml): 12.8 units of MIS activity; DO, units of MIS activity (denuded oocytes, DO; 0.03 μg/ml): 0.8 units of MIS activity

**Q.** Which results are given for `CC(C)CCC[C@@H](C)[C@H]1CC=C2C3=C(CC[C@@]21C)[C@@]1(C)CC[C@H](O)C(C)(C)C1CC3` (stereo partly drawn) [4,4-Dimethylcholesta-8,14-dien-^3β-ol, 4,4-Dimethylcholesta-8,14-Dien-^3β-ol]?
**A.** CEO, units of MIS activity ([1]; 3.0 μg/ml): 0 units of MIS activity; DO, units of MIS activity (denuded oocytes, DO; 3.0 μg/ml): 2.25 units of MIS activity

**Q.** Which “CEO, units of MIS activity” value ([1]; 0.03 μg/ml) does the source give for `CC(C)=CCC[C@@H](C)[C@H]1CC=C2C3=C(CC[C@@]21C)[C@@]1(C)CC[C@H](O)C(C)(C)[C@@H]1CC3` [4,4-dimethyl-^5α-cholesta-8,14,24-triene-^3β-ol] here?
**A.** 0.5 units of MIS activity

**Q.** What about the “CEO, units of MIS activity” value ([1]; 0.3 μg/ml) of the same molecule?
**A.** 2.3 units of MIS activity

**Q.** What about the “% GVB (oocytes undergoing germinal vesicle breakdown per total oocytes per ovary), mean±sd” value ([2]; 30 μM with 0.2 mM IBMX) of the same molecule?
**A.** 14.6±4.2%

**Q.** And the “% GVB (oocytes undergoing germinal vesicle breakdown per total oocytes per ovary), mean±sd” value ([2]; 60 μM with 0.2 mM IBMX)?
**A.** 66.9±7.4%

**Q.** And the effective dose ([2]; corresponds to the effective 30-60 μM in perfused rat ovaries)?
**A.** 12-24 mg/liter bood volume

**Q.** What about the “DO, units of MIS activity” value (denuded oocytes, DO; 0.03 μg/ml) of the same molecule?
**A.** 1.6 units of MIS activity

**Q.** What about the “DO, units of MIS activity” value (denuded oocytes, DO; 0.3 μg/ml) of the same molecule?
**A.** 0.6 units of MIS activity

**Q.** With `CC(C)=CCC[C@@H](C)[C@H]1CC[C@H]2C3=C(CC[C@]12C)[C@@]1(C)CC[C@H](O)C[C@@H]1CC3` [Zymosterol] as the molecule, how does the “CEO, units of MIS activity” value ([1]; 0.001 μg/ml) read?
**A.** 0.2 units of MIS activity

**Q.** And the “CEO, units of MIS activity” value ([1]; 0.01 μg/ml)?
**A.** 0.4 units of MIS activity

**Q.** What about the “CEO, units of MIS activity” value ([1]; 0.1 μg/ml) of the same molecule?
**A.** 1.1 units of MIS activity

**Q.** And the “DO, units of MIS activity” value (denuded oocytes, DO; 0.01 μg/ml)?
**A.** 0.6 units of MIS activity

**Q.** And the “DO, units of MIS activity” value (denuded oocytes, DO; 0.1 μg/ml)?
**A.** 1.2 units of MIS activity

**Q.** For `CC(C)=CCC[C@@H](C)[C@H]1CC[C@H]2C3=C(CC[C@]12C)[C@@]1(C)CC[C@H](O)[C@H](C)[C@@H]1CC3` [^4β-Methylzymosterol, 4^β-Methylzymosterol], which “CEO, units of MIS activity” value ([1]; 0.13 μg/ml) is on record?
**A.** 2.4 units of MIS activity

**Q.** And the “CEO, units of MIS activity” value ([1]; 3.9 μg/ml)?
**A.** 3.5 units of MIS activity

**Q.** And the “DO, units of MIS activity” value (denuded oocytes, DO; 0.13 μg/ml)?
**A.** 0.8 units of MIS activity

**Q.** What about the “DO, units of MIS activity” value (denuded oocytes, DO; 3.9 μg/ml) of the same molecule?
**A.** 6.2 units of MIS activity

**Q.** Which “% GVB (oocytes undergoing germinal vesicle breakdown per total oocytes per ovary), mean±sd” value ([2]; 60 μM with 0.2 mM IBMX) does the source give for `CC(C)CCC[C@@H](C)[C@H]1CC[C@H]2[C@@H]3CC=C4C[C@@H](O)CC[C@]4(C)[C@H]3CC[C@]12C` [cholesterol, reference compound] here?
**A.** 2.1±1.8%
